Data on one compound can be found in patent publication US20050004044A1, “Use of orsaponin [3beta, 16beta, 17 alpha-trihydroxycholost-5-en-22-one 16-0-(2-0-4-methoxybenzoyl-beta-D-xylopyranosyl)-(1->3)-(2-0-acetyl-alpha-L-arabinopyranoside)] or OSW-1 and its derivatives for cancer therapeutics” (priority 2003, published 2005).

Assay type in all cases: cell-based, human
One test has as its system HL-60 cells. As to the kind of experiment: Apoptosis and cell cycle (annexin V, DNA fragmentation, flow cytometry), HL-60. As to conditions: HL-60, 0.5 nM. On the procedure:
FIGS. 1A-1B. Induction of apoptosis by Orsaponin (OSW-1) in human leukemia cells. HL-60 cells in exponentially growing phase were treated with 0.5 nM OSW-1 for the indicated times. Drug induced apoptosis was analyzed by the annexin V assay as shown in FIG. 1A and by the DNA fragmentation assay as shown in FIG. 1B. In FIG. 1A, the early and late stages of apoptotic cells appear in the low-right window and upper-right window, respectively.
FIG. 9. Mitochondrial respiration plays an important role in the cytotoxic action of Orsaponin (OSW-1). The parental HL-60 line and its mutant with mitochondrial respiration defect, clone C6F, were incubated with 0.5 nM OSW-1 for the indicated times. Apoptosis and change in cell cycle distribution were assayed by flow cytometry analysis.
2. Analysis of Apoptosis. Two methods were used to analyze apoptosis by assaying different events in the apoptotic pathways. Percentages of apoptotic cells induced by orsaponins of the invention were evaluated using flow cytometer. Different methods of staining cells for apoptosis were utilized to assess different aspects of apoptotic cascade.
(i) Annexin V Staining. Annexin V binds to cells that express phosphatidylserine on the outer layer of the cell membrane. […] Cells were analyzed on flow cytometer.
(ii) DNA Fragmentation Assay. […] The cell are then lysed in a solution containing 10 mM Tris-HCl, pH 7.5, 25 mM EDTA, 0.5% SDS, and […] protease K. After digestion and removal of the cellular protein from the cellular DNA, the isolated DNA is analyzed on a 1.8% agarose gel, and visualized by ethidium bromide staining. […]
Two cancer cell lines and their mutant mitochondrial respiration deficient clones were analyzed for apoptosis and changes in cell-cycle following exposure to OSW-1. […] Consistent with these observations, apoptosis was also detected by DNA fragmentation assays performed at 24 and 32 hours after HL-60 cells are treated with OSW-1; DNA fragmentation was not observed in C6F cells even at 32 hours of drug incubation (data not shown).

For test [1], the system named is C19 cells (ML-1 mutant with mitochondrial respiration defect). As to the kind of experiment: Mitochondrial transmembrane potential (rhodamine-123), C19. As to conditions: C19, 1 nM. As to the method:
FIG. 11. Effect of orsaponin (OSW-1) on mitochondrial transmembrane potential ML-1 cells. The parental ML-1 line and its mutant with mitochondrial respiration defect, clone C19, were incubated with 1 nM OSW-1 for the indicated times. Change in mitochondrial transmembrane potential was measured by cytometry analysis, using rhodamine-123 as a potential-sensitive fluorescent probe.
(§1) 3. Analysis of the Mitochondrial Transmembrane Potential. To evaluate the role of mitochondrial respiration in the cytotoxicity of OSW-1, changes in the potential of mitochondrial membrane were analyzed. Following the treatment of cells with OSW-1 for different time periods, cells were incubated with rhodamine-123 which is a potential-sensitive dye. Cytometric analysis was used to record changes in mitochondrial potential. […]
The effect of OSW-1 on mitochondrial transmembrane potential of ML-1 cells and the corresponding mitochondrial respiration defective mutant cell line C19 were analyzed by incubating with 1 nM OSW-1 for 4, 16 and 24 hours. Change in mitochondrial transmembrane potential was measured by cytometry analysis, using rhodamine-123 as a potential-sensitive fluorescent probe and are depicted in FIG. 11.

The next test concerns C6F cells. In words: Mitochondrial transmembrane potential (rhodamine-123), C6F. As to conditions: 0.5 nM. As to the method: FIG. 10. Effect of Orsaponin (OSW-1) on Mitochondrial transmembrane potential HL-60 cells. The parental HL-60 line and its mutant with mitochondrial respiration defect, clone C6F, were incubated with 0.5 nM OSW-1 for the indicated times. Change in mitochondrial transmembrane potential was measured by cytometry analysis, using rhodamine-123 as a potential-sensitive fluorescent dye.
as §1
The effect of OSW-1 on mitochondrial transmembrane potential in HL-60 cells and C6F cells was also analyzed by incubating the cells with 0.5 nM OSW-1 for the 4, 16 and 24 hours. Change in mitochondrial transmembrane potential was measured by flow cytometry analysis, using rhodamine-123 as a potential-sensitive fluorescent dye and are depicted in FIG. 10.

The next test concerns ML-1 leukemia cells. In words: MTT cell growth inhibition, ML-1. As to conditions: Homo sapiens, 72 h, ML-1, 72 h. As to the method: 1. MTT Assays. For these assays either cancer cell lines were used. Alternatively, mononuclear cells from peripheral blood samples of CLL patients or normal donors were separated by Ficoll Hipaque fractionation and resuspended in DMEM complete medium. Malignant cells from various human cell lines (usually at 5×10^4 cells/ml) or mononuclear cells from peripheral blood of leukemia patients and healthy donors (1×10^6 cells/ml) were incubated in either αMEM or RPMI 1640 with or without various concentrations of OSW-1 in the range of 0-10 nM. Each experimental condition was done in triplicate. After the indicated number of days (usually 3 days or 72 hours) of exposure to OSW-1, cell survival was assessed by the addition of the MTT dye to the wells. The MTT dye changes its color depending on the presence of live cells in the well. Survival of cells under orsaponin treatment was evaluated as a percentage of control cell growth. Alternatively, one can also use the dye trypan-blue which penetrates dead cells thereby allowing one to count live cells under the microscope and estimating percentage survival.
Anticancer activities of Orsaponin and 17-deoxyorsaponin were examined in human leukemia cells (ML-1) and human lymphoma cells (Raji). Cells were incubated with various concentrations of Orsaponin and 17-deoxyorsaponin for 72 h, and cell growth inhibition was measured by MTT assay.
The effect of 17-deoxyorsaponin in human ovarian cancer cells was determined. SKOV3 ovarian cancer cells were incubated with various concentrations of 17-deoxyorsaponin for 72 h. Cell growth inhibition was measured by MTT assay (FIG. 17). […] The effect of 17-deoxyorsaponin in human acute myeloid leukemia cells was also examined. ML-1 leukemia cells were incubated with various concentrations of 17-deoxyorsaponin for 72 h and cell growth inhibition was measured using the MTT assay (FIG. 18).

pIC50: −log10 of the molar value.

What is called pIC50 is the IC50 on a negative log10 scale, so that one unit is a factor of ten. Lower therefore signals a large IC50. With `COc1ccc(C(=O)OC2C(OC3C(O)COC(O[C@H]4C[C@H]5[C@@H]6CC=C7C[C@@H](O)CC[C@]7(C)[C@H]6CC[C@]5(C)[C@@]4(O)[C@H](C)C(=O)CCC(C)C)C3OC(C)=O)OCC(O)C2O)cc1` (stereo partly drawn) [OSW-1, 3β, 16β, 17 α-trihydroxycholost-5-en-22-one 16-O-(2-O-4-methoxybenzoyl-β-D-xylopyranosyl)-(1->3)-(2-O-acetyl-α-L-arabinopyranoside)], in the test with HL-60 cells (16 hours), the “change in cell cycle distribution” value was “significant reduction of G1 phase cells and an increase of cells in the G2/M phase region”. Besides, the “apoptosis (subG1)” value in the test with HL-60 cells (24 h, flow cytometry) was “a substantial portion of the drug-treated HL-60 cells became apoptotic”. The “time after incubation at which apoptosis occurred” value in the test with HL-60 cells (annexin V and DNA fragmentation) was 16 h. The “change in mitochondrial transmembrane potential” value in test [1] is on record as “loss of mitochondrial transmembrane potential in only a small portion the cells”; in the test with C6F cells it was “did not show significant loss of mitochondrial transmembrane potential”. The pIC50 with ML-1 leukemia cells was over 10.00.
